According to patent US20060052451A1, “Method” (priority 2002, published 2006):

What was measured:
[1] = tested on: HT-29 cells (human colon tumour-derived); test: SRB growth inhibition assay, HT-29 cells; format: cell-based; details: 48 hours exposure
Description: (§1) The effect of perfluorinated compounds on the inhibition of tumour cell growth was assessed iii vitro using three human tumour-derived cell lines. Cancer cell lines were tested using the sulphorhodamine B (SRB) assay (which measures cellular protein and is directly related to cell number), which is utilised by the […] to screen anti-cancer agents.
(§2) HT-29 cells (human colon tumour-derived), MCF7 cells (human breast cancer-derived) and PC3 cells (human prostate cancer-derived) were harvested and diluted (to 5×10^4 cells per ml, 1×10^5 cells per ml and 7.5×10^4 cells per ml respectively) in RPMI 1640 medium containing 5% FBS, 2 mM glutamine and. 50 μg/ml gentamicin. 100 μl of cell suspension per well was added to 96 well plates and allowed to attach overnight. Cells were exposed to test compounds dissolved in DMSO in 100 μl of medium to give final drug concentrations of 0, 0.3, 1, 3, 10, 30, 100, 300, 1000 and 3000 μM (and DMSO at 0.25%). (n=6 for each drug concentration). After 48 hours, cells were fixed in 10% trichloroacetic acid (TCA) at 4° C. for 1-2 hours then washed using water and subsequently air-dried. 100 μl SRB solution (0.4%) in 1% Acetic Acid was added to each well, and plates were incubated at room temperature for 10 minutes. Unbound dye was removed by washing with 1% acetic acid. Plates were air-dried and bound stain was solubilised in 10 mM Tris base and the absorbance read at 520 nm.

[2] = tested on: MCF7 cells (human breast cancer-derived); test: SRB growth inhibition assay, MCF7 cells; format: cell-based; details: 48 hours exposure
Description: as §1, §2

[3] = tested on: PC3 cells (human prostate cancer-derived); test: SRB growth inhibition assay, PC3 cells; format: cell-based
Description: as §1, §2

[4] = tested on: three human tumour-derived cell lines (HT-29, MCF7, PC3); test: SRB growth inhibition, summary over the three human tumour cell lines; format: cell-based; details: Homo sapiens; over HT-29, MCF7 and PC3
Description: as §1, §2

[5] = 7-day oral gavage study, metabolic parameters, body weight and food consumption in CR SD rats; format: in vivo, rat; details: for Weight loss: 7 days; for Cholesterol (plasma) / Glucose (plasma) / Insulin (plasma) / Triglycerides (plasma): n=5; for Plasma glucose, % of control values: dose not stated
Description: Two groups (n=5) of CR SD rats (approximately 300 g) were treated with 2 dose levels of perfluorinated compounds (15 and 25 mg/kg/day body weight). Animals were administered test substances, dissolved in corn oil, by oral gavage, daily for 7 days. One group of 20 CR SD rays was also treated with vehicle (corn oil) alone. Body weight and food consumption were monitored daily.
Twenty-four hours after the last dose the animals were killed by an increasing concentration of carbon dioxide. Blood was collected by cardiac puncture and plasma was prepared and stored at −70° C. until analysed.
Plasma was analysed for triglycerides, cholesterol, and glucose, using kits purchased from Sigma. Concentrations of plasma insulin were determined using a commercially available enzyme-immunoassay-based kit from Amersham Biosciences. All assays were carried out as specified by the manufacturer.

[6] = target: T1, human PPAR-alpha ligand binding domain (Homo sapiens, UniProt Q07869); test: PPAR alpha ligand binding (displacement of DAUDA); details: for Kd: PPAR Receptor Binding Kd Alpha (apparent Kd), DAUDA displacement
T1 sequence (Q07869 179-468): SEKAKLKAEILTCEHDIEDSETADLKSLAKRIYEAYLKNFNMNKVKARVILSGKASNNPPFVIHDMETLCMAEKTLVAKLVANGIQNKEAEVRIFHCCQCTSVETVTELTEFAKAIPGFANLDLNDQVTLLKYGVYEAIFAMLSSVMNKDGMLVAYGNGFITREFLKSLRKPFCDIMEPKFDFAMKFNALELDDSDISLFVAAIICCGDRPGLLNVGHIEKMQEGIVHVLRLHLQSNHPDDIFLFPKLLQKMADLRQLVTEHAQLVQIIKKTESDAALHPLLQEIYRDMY

[7] = Plasma levels of PFOA after 11 days oral dosing in SD rats (LC/MS/MS); format: in vivo, rat; details: 25 mg/kg oral daily for 11 days, 24 hours after final administration
Description: The study consisted of one control group of 8 male CD Sprague Dawley rats (8-10-weeks old; obtained from Harlan, UK) and 4 test groups that contained 4 rats. Animals received powdered RM1 diet ad libitum for the duration of the study. […] All chemicals were dissolved in Mazola corn oil (at 2.5 mg/ml) and test compounds were administered at 10 ml/kg bodyweight. Control animal received Mazola corn oil only. All animals were sacrificed after 11 days. Animals were killed by exposure to rising concentrations of CO2, and blood was harvested into lithium/heparin tubes for plasma.
Rat plasma samples were denatured by adding acetonitrile, and the amount of perfluorooctanoic acid (PFOA) present was determined by LC/MS/MS.

[8] = target: T2, PPAR delta (Homo sapiens, UniProt Q03181); test: PPAR delta transactivation assay in COS-1 cells; format: cell-based; parameters: Fold activation of PPAR delta: dose or concentration left out as unconfirmed; details: for Inhibition of activation of PPAR delta (by a factor of): transactivation assay; for Fold activation of PPAR delta: mean±SD n=3
T2 construct: 25 ng of vector DNA carrying PPAR alpha, delta or gamma; expressed in transfected cells; host or cells: COS-1 (African green monkey kidney cells)
T2 sequence (Q03181 1-441): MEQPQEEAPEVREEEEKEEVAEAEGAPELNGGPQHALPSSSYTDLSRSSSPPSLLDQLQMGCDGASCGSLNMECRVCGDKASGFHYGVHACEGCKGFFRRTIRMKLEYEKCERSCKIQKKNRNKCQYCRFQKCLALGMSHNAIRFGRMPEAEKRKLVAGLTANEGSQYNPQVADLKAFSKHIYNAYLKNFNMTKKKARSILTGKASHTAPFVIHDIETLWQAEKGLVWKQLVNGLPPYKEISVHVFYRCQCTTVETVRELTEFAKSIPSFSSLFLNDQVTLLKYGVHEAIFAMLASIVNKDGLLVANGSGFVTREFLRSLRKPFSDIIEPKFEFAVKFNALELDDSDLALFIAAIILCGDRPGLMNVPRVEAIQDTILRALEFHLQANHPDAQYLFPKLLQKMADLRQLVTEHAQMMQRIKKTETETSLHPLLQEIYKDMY

[9] = target: T3, human PPAR-gamma ligand binding domain (Homo sapiens, UniProt P37231); test: PPAR gamma ligand binding (displacement of cis-parinaric acid)
T3 sequence (P37231 202-505): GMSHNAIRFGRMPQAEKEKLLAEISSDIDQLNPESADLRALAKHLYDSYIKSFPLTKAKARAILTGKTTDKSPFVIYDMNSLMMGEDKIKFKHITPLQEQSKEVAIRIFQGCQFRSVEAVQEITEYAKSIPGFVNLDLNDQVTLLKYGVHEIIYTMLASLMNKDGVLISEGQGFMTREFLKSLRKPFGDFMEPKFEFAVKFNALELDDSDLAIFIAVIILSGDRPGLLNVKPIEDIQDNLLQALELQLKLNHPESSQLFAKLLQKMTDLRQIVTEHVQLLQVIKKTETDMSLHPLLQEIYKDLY

[10] = Homo sapiens, PC-3, 48 hours exposure
[11] = 15 mg/kg/day oral gavage 7 days
[12] = 25 mg/kg/day oral gavage 7 days
[13] = 15 and 25 mg/kg/day, versus control

| SMILES | IC50 ([1]; Homo sapiens, HT-29, 48 h) [µM] | IC50 ([2]; Homo sapiens, MCF7, 48 h) [µM] | IC50 [3, 10] [µM] | IC50 [4] [µM] | Plasma insulin, % of control values ([5]; 15 mg/kg) [%] | Weight loss ([5]; 15 mg/kg) [%] | Cholesterol (plasma) [5, 11] [mmol/L] | Glucose (plasma) [5, 11] [mmol/L] | Insulin (plasma) [5, 11] [ng/mL] | Triglycerides (plasma) [5, 11] [mmol/L] | Plasma cholesterol, % of control values ([5]; 25 mg/kg) [%] | Plasma insulin, % of control values ([5]; 25 mg/kg) [%] | Plasma triglycerides, % of control values ([5]; 25 mg/kg) [%] | Glucose (plasma) [5, 12] [mmol/L] | Insulin (plasma) [5, 12] [ng/mL] | Triglycerides (plasma) [5, 12] [mmol/L] | Food consumption [5, 13] | Plasma glucose, % of control values [5] [%] | Kd [6] [µM] | Cholesterol (plasma) [5, 12] [mmol/L] | other results |
| --- | --- | --- | --- | --- | --- | --- | --- | --- | --- | --- | --- | --- | --- | --- | --- | --- | --- | --- | --- | --- | --- |
| N.O=C(O)C(F)(F)C(F)(F)C(F)(F)C(F)(F)C(F)(F)C(F)(F)C(F)(F)F [APFO, Ammonium perfluorooctanoate] | 293 | 211 | 215 | 200 to 600 | 13.5 | 1 | 1.00 ± 0.36 | 13.12 ± 0.74 | 25.02 ± 20.27 | 0.25 ± 0.07 | 56.2 | 8.3 | 19.1 | 11.99 ± 1.87 | 15.29 ± 9.72 | 0.34 ± 0.09 | dose-related, decreases in food consumption | 72.6 | 8 | – | Food consumption ([5]; 15 mg/kg): did not decrease further after day 6; Weight loss ([5]; 25 mg/kg (higher dose)): 11%; Bodyweight change ([5]; 15 and 25 mg/kg/day, continued till end of treatment): lost bodyweight after day 3 |
| CCOC(=O)C(F)(F)C(F)(F)C(F)(F)C(F)(F)C(F)(F)C(F)(F)C(F)(F)F [EPOA, Ethylperfluorooctanoate] | – | – | – | – | – | – | – | – | – | – | – | – | – | – | – | – | – | – | – | – | Plasma concentration of PFOA (free acid) [7]: equimolar concentrations of PFOA |
| FC(F)(F)C(F)(F)C(F)(F)C(F)(F)C(F)(F)C(F)(F)C(F)(F)C(F)(F)F [PFO, Perfluorooctane] | – | – | – | – | – | – | 1.99 ± 0.46 | 18.41 ± 1.41 | 99.58 ± 126.1 | 1.03 ± 0.35 | – | 33.5 | – | 17.13 ± 2.37 | 61.81 ± 45.81 | 2.09 ± 2.33 | – | – | – | 1.70 ± 0.11 | Plasma glucose raised by ([5]; 25 mg/kg): 3% |
| O=C(O)C(F)(F)C(F)(F)C(F)(F)C(F)(F)C(F)(F)C(F)(F)C(F)(F)F [PFOA, Perfluorooctanoic acid] | – | – | – | – | 2.98 | 9.4 | 1.01 ± 0.086 | 10.30 ± 1.23 | 5.51 ± 8.88 | 0.37 ± 0.04 | 49.2 | 30.74 | 16.8 | 10.01 ± 3.90 | 56.76 ± 46.5 | 0.3 ± 0.13 | dose-related, decreases in food consumption | 60 | 6 | 0.98 ± 0.35 | IC50 [1]: 398 µM; IC50 [2]: 244 µM; IC50 ([3]; 48 hours exposure): 215 µM; Inhibition of activation of PPAR delta (by a factor of) [8]: 4; Bodyweight lost ([5]; 25 mg/kg, after day 6, terminated early): 11.7% |
| O=C(O)C(F)(F)C(F)(F)C(F)(F)C(F)(F)C(F)(F)C(F)(F)C(=O)O [PFSA, Perfluorosuberic acid (C8)] | > 3000 | > 3000 | > 3000 | ~3000 | 28.7 | – | 1.76 ± 0.15 | 16.41 ± 2.09 | 52.96 ± 26.55 | 0.95 ± 0.42 | – | – | – | 15.9 ± 1.43 | 109 ± 103.2 | 1.22 ± 0.56 | – | – | 44 | 1.92 ± 0.36 | Fold activation of PPAR delta [8]: 0.62 ± 0.31 fold; Inhibition of activation of PPAR delta (by a factor of) [8]: 1.6; Reduction in binding affinity for PPAR alpha compared to PFOA [6]: 7 fold; Kd [9]: 13 µM; Reduction in binding affinity for PPAR gamma compared to PFOA [9]: ~40 fold |
| CCCCC[C@H](O)/C=C/[C@@H]1[C@H]2C/C(=C/CCCC(=O)O)C[C@H]2C[C@H]1O [carbaprostacyclin, reference compound] | – | – | – | – | – | – | – | – | – | – | – | – | – | – | – | – | – | – | – | – | Fold activation of PPAR delta [8]: 2.17 ± 0.42 fold |
